Earlier results in patent publication US6696276B2, “Vasopermeability-enhancing conjugates” (priority 1988, dated 2004).

Details: as little as

| SMILES | amount eliciting erythema and wheal formation [nmol] |
| --- | --- |
| CCCCC/C=C\C\C=C/C=C/C=C/[C@@H](SC[C@H](NC(=O)CC[C@H](N)C(=O)O)C(=O)NCC(=O)O)[C@@H](O)CCCC(=O)O [leukotriene C4] | 1 |
| CCCCC/C=C\C\C=C/C=C/C=C/[C@@H](SC[C@H](N)C(=O)O)[C@@H](O)CCCC(=O)O [leukotriene E4] | 1 |
| CCCCC/C=C\C\C=C/C=C/C=C/[C@@H](SC[C@H](N)C(=O)NCC(=O)O)[C@@H](O)CCCC(=O)O [leukotriene D4] | 1 |
